We go through three molecules from US8076487B2, “Pyridone derivative and herbicide” (Kumiai Chemical Industry Co., Ltd., priority 2006, dated 2011).

Common to all, as to assay type: in vivo
For test [1], the system named is Japanese bulrush (Scirpus juncoides Roxb.). Kind of test: Test Example 1: herbicidal effect by soil application to paddy field. To be noted: paddy field soil application; active ingredient 1,000 g per 1 hectare; wettable powder added dropwise to water surface the day after sowing; examined on the 21st day after application. Summed up:
(§1)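 Under greenhouse conditions, seeds sown on puddled paddy soil in 100 cm2 pots under 3 cm of standing water received the test compound; injury was assessed with a standard scoring scheme three weeks (day 21) after treatment.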

The subject of test [2] is early watergrass (Echinochloa oryzicola Vasing). Described as above. Conditions: paddy field soil application; active ingredient 1,000 g per 1 hectare; wettable powder added dropwise to water surface the day after sowing; examined on the 21st day after application. Summed up:
as §1

Test [3] relates to heartshape false pickerelweed (Monochoria vaginalis (Burm.f.) C.Presl). The test is described as above. Conditions: paddy field soil application; active ingredient 1,000 g per 1 hectare; wettable powder added dropwise to water surface the day after sowing; examined on the 21st day after application. Summed up: as §1
The test system of test [4] is slender amaranth (Amaranthus viridis L.). Kind of test: Test Example 3: herbicidal effect by application to upland field (foliage treatment). Conditions: 14th day after application; for herbicidal effect, Slender Amaranth: foliage treatment, 1,000 g active ingredient per 1 hectare, greenhouse. Summed up: (§2)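 Foliage treatment, greenhouse: 2-week-old plants in field soil; wettable powder in water sprayed over the top at 1,000 g a.i./ha (1,000 L/ha); rating on day 14 post-application.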

In test [5] the test system is green foxtail (Setaria viridis (L.) P. Beauv.). The test is described as above. Conditions: 14th day after application; for herbicidal effect, Green Foxtail: foliage treatment, 1,000 g active ingredient per 1 hectare, greenhouse. In outline: as §2
Test [6] deals with velvetleaf (Abutilon theophrasti medicus). The test is described as above. Conditions: 14th day after application; for herbicidal effect, Velvetleaf: foliage treatment, 1,000 g active ingredient per 1 hectare, greenhouse. Summed up: as §2
For test [7], the system named is barnyardgrass (Echinochloa crus-galli (L.) P. Beauv. var. crus-galli). The test is described as above. Conditions: 14th day after application; for herbicidal effect, Barnyardgrass: foliage treatment, 1,000 g active ingredient per 1 hectare, greenhouse. In outline:
as §2

Test [8] concerns slender amaranth (Amaranthus viridis L.). In words: Test Example 2: herbicidal effect by soil application to upland field. Conditions: soil surface spray, upland field soil, 1,000 g active ingredient per hectare, 21st day after application. In outline:
(§3)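 A standard visual rating of herbicidal effect, made 21 days after treatment, gives the value. Treatment consisted of a uniform spray of water-diluted wettable powder on the soil covering newly sown seeds, equivalent to 1,000 g active ingredient and 1,000 liters per hectare.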

The subject of test [9] is green foxtail (Setaria viridis (L.) P. Beauv.). The test is described as above. To be noted: soil surface spray, upland field soil, 1,000 g active ingredient per hectare, 21st day after application. Summed up: as §3
Test [10] deals with velvetleaf (Abutilon theophrasti medicus). The test is described as above. Conditions: soil surface spray, upland field soil, 1,000 g active ingredient per hectare, 21st day after application. Summed up:
as §3

The test system of test [11] is barnyardgrass (Echinochloa crus-galli (L.) P. Beauv. var. crus-galli). Described as above. Conditions: soil surface spray, upland field soil, 1,000 g active ingredient per hectare, 21st day after application. Summed up:
as §3

Setting [12] is: foliage treatment, plants grown two weeks, 1,000 g active ingredient per hectare.

Turning to `COCCn1c(C(F)(F)F)ccc(C(=O)C2=C(O)CCCC2=O)c1=O` [I-31], the “herbicidal effect, Scirpus juncoides Roxb.” value in test [1] was 5 (90% or more of herbicidal effect and crop phytotoxicity). For the same molecule, the “herbicidal effect, Echinochloa oryzicola Vasing” value in test [2] is 5 (90% or more of herbicidal effect and crop phytotoxicity). Besides, the “herbicidal effect, Monochoria vaginalis (Burm. f.) C. Presl” value (“herbicidal effect, Monochoria vaginalis” below) in test [3] was 5 (90% or more of herbicidal effect and crop phytotoxicity). In addition, the “herbicidal effect (index), Slender Amaranth” value in test [4] (setting [12]) is 5 (90% or more of herbicidal effect and crop phytotoxicity); in test [8], 5 (90% or more of herbicidal effect and crop phytotoxicity). In addition, the “herbicidal effect (index), Green Foxtail” value in test [5] (setting [12]) is 5 (90% or more of herbicidal effect and crop phytotoxicity); in test [9], 5 (90% or more of herbicidal effect and crop phytotoxicity). Besides, the “herbicidal effect (index), Velvetleaf” value was 5 (90% or more of herbicidal effect and crop phytotoxicity) in [6] (setting [12]); 5 (90% or more of herbicidal effect and crop phytotoxicity) in [10]. The “herbicidal effect (index), Barnyardgrass” value is 5 (90% or more of herbicidal effect and crop phytotoxicity) in test [7] (setting [12]); 5 (90% or more of herbicidal effect and crop phytotoxicity) in test [11].

As for `CCCS(=O)(=O)Oc1c(C(=O)c2ccc(C(F)(F)F)n(CC(C)OC)c2=O)cnn1C` (stereo not drawn) [IV-39], in [1], the “herbicidal effect, Scirpus juncoides Roxb.” value is 5 (90% or more of herbicidal effect and crop phytotoxicity). In test [2], the “herbicidal effect, Echinochloa oryzicola Vasing” value was 5 (90% or more of herbicidal effect and crop phytotoxicity). For the same molecule, the “herbicidal effect, Monochoria vaginalis” value in [3] was 5 (90% or more of herbicidal effect and crop phytotoxicity). For the same molecule, the “herbicidal effect, Slender Amaranth” value in test [4] was 5 (90% or more of herbicidal effect and crop phytotoxicity). Further, the “herbicidal effect, Green Foxtail” value in test [5] is 3 (50 to less than 70% of herbicidal effect and crop phytotoxicity). Also, the “herbicidal effect, Velvetleaf” value in [6] was 5 (90% or more of herbicidal effect and crop phytotoxicity). For the same molecule, the “herbicidal effect, Barnyardgrass” value in test [7] is 5 (90% or more of herbicidal effect and crop phytotoxicity). For the same molecule, the “herbicidal effect (index), Slender Amaranth” value in [8] was 4 (70 to less than 90% of herbicidal effect and crop phytotoxicity). Besides, the “herbicidal effect (index), Green Foxtail” value in test [9] is 3 (50 to less than 70% of herbicidal effect and crop phytotoxicity). Further, the “herbicidal effect (index), Velvetleaf” value in test [10] was 4 (70 to less than 90% of herbicidal effect and crop phytotoxicity). Moreover, in test [11], the “herbicidal effect (index), Barnyardgrass” value is 5 (90% or more of herbicidal effect and crop phytotoxicity).

Consider `CCCn1c(C(F)(F)F)c(C)cc(C(=O)C2=C(O)C3CCC(C3)C2=O)c1=O` (stereo not drawn) [III-18], for which, in test [1], the “herbicidal effect, Scirpus juncoides Roxb.” value was 5 (90% or more of herbicidal effect and crop phytotoxicity). Further, in test [2], the “herbicidal effect, Echinochloa oryzicola Vasing” value was 5 (90% or more of herbicidal effect and crop phytotoxicity). Besides, in test [3], the “herbicidal effect, Monochoria vaginalis” value was 5 (90% or more of herbicidal effect and crop phytotoxicity). For the same molecule, the “herbicidal effect, Slender Amaranth” value in test [4] was 5 (90% or more of herbicidal effect and crop phytotoxicity). Moreover, in test [5], the “herbicidal effect, Green Foxtail” value was 5 (90% or more of herbicidal effect and crop phytotoxicity). Besides, the “herbicidal effect, Velvetleaf” value in test [6] was 5 (90% or more of herbicidal effect and crop phytotoxicity). For the same molecule, the “herbicidal effect, Barnyardgrass” value in test [7] is 5 (90% or more of herbicidal effect and crop phytotoxicity). The “herbicidal effect (index), Slender Amaranth” value in [8] was 5 (90% or more of herbicidal effect and crop phytotoxicity). Also, the “herbicidal effect (index), Green Foxtail” value in test [9] was 3 (50 to less than 70% of herbicidal effect and crop phytotoxicity). Moreover, the “herbicidal effect (index), Velvetleaf” value in test [10] is 5 (90% or more of herbicidal effect and crop phytotoxicity). In addition, the “herbicidal effect (index), Barnyardgrass” value in [11] is 5 (90% or more of herbicidal effect and crop phytotoxicity).
